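A five-concentration, 48-hour dose response in 96-well plates underlies each endpoint, interpolated linearly between surrounding concentrations. GI50: concentration for 50% inhibition of growth.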 The source made the active and inactive calls. No stated cut-off is given here; in the data, active = GI50 up to about 1.1 µM and inactive = higher.
Assays:
Test in all cases: inhibition of tumour cell growth, NCI panel, 48 h
[1] = tested on: SK-MEL-28
[2] = tested on: PC-3
[3] = tested on: HL-60
[4] = tested on: NCI-H23
[5] = tested on: DU-145
[6] = tested on: SF-268
[7] = tested on: HCC 2998
[8] = tested on: SK-OV-3
[9] = tested on: M14
[10] = tested on: EKVX
[11] = tested on: K562
[12] = tested on: HT-29
[13] = tested on: SK-MEL-5
[14] = tested on: SN12C
[15] = tested on: HCT-15
[16] = tested on: Malme-3M
[17] = tested on: T47D
[18] = tested on: SF-295
[19] = tested on: MDA-N
[20] = tested on: 786-0
[21] = tested on: UACC-62
[22] = tested on: MDA-MB-231
[23] = tested on: TK-10
[24] = tested on: SR
[25] = tested on: A549
[26] = tested on: LOX IMVI
[27] = tested on: CCRF-CEM
[28] = tested on: MOLT-4
[29] = tested on: SNB-75
[30] = tested on: RXF 393
[31] = tested on: CAKI-1
[32] = tested on: IGROV-1
[33] = tested on: RPMI-8226
[34] = tested on: UACC-257
[35] = tested on: COLO 205
[36] = tested on: HOP-62
[37] = tested on: MCF7
[38] = tested on: OVCAR-8
[39] = tested on: KM12
[40] = tested on: SW-620
[41] = tested on: SNB-19
[42] = tested on: HOP-92
[43] = tested on: NCI-H226
[44] = tested on: U-251
[45] = tested on: Hs-578T
[46] = tested on: ACHN
[47] = tested on: OVCAR-5
[48] = tested on: NCI/ADR-RES
[49] = tested on: MDA-MB-435
[50] = tested on: SF-539
[51] = tested on: SK-MEL-2
[52] = tested on: NCI-H460
[53] = tested on: A498
[54] = tested on: NCI-H522
[55] = tested on: UO-31
[56] = tested on: OVCAR-3
[57] = tested on: BT-549
[58] = tested on: OVCAR-4

With `CCCCCCCCCC[C@@H](OC(C)=O)[C@@H]1CC[C@@H]([C@@H]2CC[C@@H]([C@@H](O)CC#C/C=C/CCCCCCC[C@@]3(Sc4ccccc4)C[C@H](C)OC3=O)O2)O1` the GI50 [1] was > 10 µM (inactive), the GI50 [2] was > 10 µM (inactive) and the GI50 [3] was > 10 µM (inactive). The GI50 [4] was 0.968 µM (active), the GI50 [5] was > 10 µM (inactive) and the GI50 [6] was > 10 µM (inactive). The GI50 [7] was > 10 µM (inactive), the GI50 [8] was > 10 µM (inactive) and the GI50 [9] was > 10 µM (inactive). For the same compound, the GI50 [10] was > 10 µM (inactive), the GI50 [11] was 9.89 µM (inactive) and the GI50 [12] was > 10 µM (inactive). The GI50 [13] was 4.57 µM (inactive), the GI50 [14] was > 10 µM (inactive) and the GI50 [15] was > 10 µM. The GI50 [16] was > 10 µM (inactive), the GI50 [17] was 7.46 µM (inactive) and the GI50 [18] was > 10 µM (inactive). The GI50 [19] was > 10 µM (inactive), the GI50 [20] was > 10 µM (inactive) and the GI50 [21] was > 10 µM (inactive). The GI50 [22] was > 10 µM (inactive), the GI50 [23] was > 10 µM (inactive) and the GI50 [24] was > 10 µM (inactive). For the same compound, the GI50 [25] was > 10 µM (inactive), the GI50 [26] was > 10 µM (inactive) and the GI50 [27] was > 10 µM (inactive). The GI50 [28] was > 10 µM (inactive), the GI50 [29] was > 10 µM (inactive) and the GI50 [30] was > 10 µM (inactive). For the same compound, the GI50 [31] was > 10 µM (inactive), the GI50 [32] was > 10 µM (inactive) and the GI50 [33] was > 10 µM (inactive). For the same compound, the GI50 [34] was 3.08 µM (inactive), the GI50 [35] was > 10 µM (inactive) and the GI50 [36] was > 10 µM (inactive). For the same compound, the GI50 [37] was > 10 µM (inactive), the GI50 [38] was > 10 µM (inactive) and the GI50 [39] was > 10 µM (inactive). For the same compound, the GI50 [40] was > 10 µM (inactive).
`CC(=O)OC/C=C/Cn1ncc(=O)[nH]c1=O` was tested, and the GI50 [1] was > 100 µM (inactive), the GI50 [41] was > 100 µM (inactive) and the GI50 [42] was > 100 µM (inactive). The GI50 [2] was > 100 µM (inactive), the GI50 [3] was > 100 µM (inactive) and the GI50 [43] was > 100 µM (inactive). The GI50 [4] was > 10 µM (inactive), the GI50 [5] was > 100 µM (inactive) and the GI50 [6] was > 100 µM (inactive). The GI50 [7] was > 100 µM (inactive), the GI50 [44] was > 100 µM (inactive) and the GI50 [45] was > 100 µM (inactive). For the same compound, the GI50 [9] was > 100 µM (inactive), the GI50 [10] was > 100 µM (inactive) and the GI50 [11] was > 100 µM (inactive). The GI50 [12] was > 100 µM (inactive), the GI50 [13] was > 100 µM (inactive) and the GI50 [14] was > 100 µM (inactive). The GI50 [46] was > 100 µM (inactive), the GI50 [47] was > 100 µM (inactive) and the GI50 [15] was > 100 µM. For the same compound, the GI50 [16] was > 100 µM (inactive), the GI50 [17] was > 100 µM (inactive) and the GI50 [48] was > 100 µM (inactive). The GI50 [49] was > 100 µM (inactive), the GI50 [19] was > 100 µM (inactive) and the GI50 [22] was > 100 µM (inactive). For the same compound, the GI50 [50] was > 100 µM (inactive), the GI50 [51] was > 100 µM (inactive) and the GI50 [25] was > 100 µM (inactive). For the same compound, the GI50 [52] was > 100 µM (inactive), the GI50 [26] was > 100 µM (inactive) and the GI50 [27] was > 10 µM (inactive). The GI50 [28] was > 100 µM (inactive), the GI50 [29] was > 100 µM (inactive) and the GI50 [30] was > 100 µM (inactive). For the same compound, the GI50 [31] was > 100 µM (inactive), the GI50 [32] was > 100 µM (inactive) and the GI50 [33] was > 100 µM (inactive). For the same compound, the GI50 [35] was > 100 µM (inactive), the GI50 [36] was > 100 µM (inactive) and the GI50 [37] was > 100 µM (inactive). For the same compound, the GI50 [38] was > 100 µM (inactive), the GI50 [53] was > 100 µM (inactive) and the GI50 [54] was > 100 µM (inactive). The GI50 [55] was > 100 µM (inactive), the GI50 [39] was > 100 µM (inactive) and the GI50 [56] was > 100 µM (inactive). For the same compound, the GI50 [40] was > 100 µM (inactive).
In the case of `COc1ccccc1C1(C)SCc2nc3ccccc3n21` (stereo not given), the GI50 [41] is reported as > 10 µM (inactive), the GI50 [42] is reported as > 10 µM (inactive) and the GI50 [2] is reported as > 10 µM (inactive). The GI50 [3] was > 10 µM (inactive), the GI50 [43] was > 10 µM (inactive) and the GI50 [4] was > 10 µM (inactive). For the same compound, the GI50 [5] was > 10 µM (inactive), the GI50 [44] was > 10 µM (inactive) and the GI50 [9] was > 10 µM (inactive). For the same compound, the GI50 [11] was > 10 µM (inactive), the GI50 [14] was > 10 µM (inactive) and the GI50 [47] was > 10 µM (inactive). For the same compound, the GI50 [15] was > 10 µM, the GI50 [16] was > 10 µM (inactive) and the GI50 [48] was > 10 µM (inactive). The GI50 [49] was > 10 µM (inactive), the GI50 [19] was > 10 µM (inactive) and the GI50 [23] was > 10 µM (inactive). The GI50 [24] was > 10 µM (inactive), the GI50 [51] was > 10 µM (inactive) and the GI50 [57] was > 10 µM (inactive). The GI50 [26] was > 10 µM (inactive), the GI50 [27] was > 10 µM (inactive) and the GI50 [28] was > 10 µM (inactive). For the same compound, the GI50 [58] was > 10 µM (inactive), the GI50 [37] was > 10 µM (inactive) and the GI50 [54] was > 10 µM (inactive). The GI50 [55] was > 10 µM (inactive), the GI50 [39] was > 10 µM (inactive) and the GI50 [56] was > 10 µM (inactive). The GI50 [40] was > 10 µM (inactive).
